Our source for the MCC and MIC values is US4940705A, “N-substituted derivatives of 1-desoxynojirimycin and 1-desoxymannonojirimycin and pharmaceutical use” (Bayer Aktiengesellschaft, priority 1987, dated 1990).

The nature of one data set: Cytotoxicity (MCC). Particulars: sheep, sheep fibroblast cells; MCC denotes cytotoxicity; Table 1. It counts as cell-based. As for the experimental part:
(§1) The Visna virus test was carried out by the method of O. Narayan et al., Journal of Infectious Diseases 135, 5, 1977, 800-806. For this, the compounds according to the invention were diluted to non-cytotoxic concentrations in culture medium in 96-well microtiter plates. Subsequently, sheep fibroblast cells (5×10^4 cells per well) in production medium were added to each well. Each well then contained 50 μl of a Visna virus solution having a titre of about 2.5×10^4TCID50 (TCID=tissue culture infectious dose). This virus dose corresponds to an MOI (multiplicity of infection) of about 0.05.
(§2) Herein, MCC denotes cytotoxicity and MIC denotes the minimum concentration at which an inhibition of virus multiplication was still observed.

Another data set has as its system Visna virus. In words: Visna virus test: inhibition of virus-induced cytopathic effect / virus multiplication in infected cell cultures. It is filed as cell-based. The conditions noted are these: Visna-maedi virus, 168 h, sheep fibroblast cells, 7 days at 37° C., Table 1, read-out: 2 MIC (minimum concentration at which an inhibition of virus multiplication was still observed). How it is done: In cell cultures which are infected with Visna virus, pronounced virus-induced, cytopathic effects appear 5 to 10 days after infection. By treatment of the infected cell cultures with the compounds according to the invention, the appearance of these cytopathic effects could be prevented.
as §1
The infected and treated cells and the controlled cells were incubated for 7 days at 37° C. and 5% CO2.
On appearance of the virus-induced cytopathogenic effect in the untreated virus control, the cultures were fixed using formalin and subsequently stained with a Giemsa solution.
as §2

Molecules are shown by their SMILES. In brackets after ≈: the same amount, converted by molar mass.

In “Cytotoxicity (MCC)”, `O=C(CCN1C[C@H](O)[C@@H](O)[C@H](O)[C@H]1CO)Nc1ccc(OCc2ccccc2)cc1` [Example 4, N-(4-Benzyloxyphenyl)-3-(1,5-didesoxy-1,5-imino-D-glucit-N-yl)propionamide] had an MCC of over 1000 µg/mL. Besides, the MIC in the data set on Visna virus is 125 µg/mL (≈ 300 µM).
`CC(C)(C)c1ccc(NC(=O)CCN2C[C@H](O)[C@@H](O)[C@H](O)[C@H]2CO)cc1` [Example 7, N-(4-Tert.-butylphenyl)-3-(1,5-didesoxy-1,5-imino-D-glucit-N-yl)propionamid] had an MCC in the data set “Cytotoxicity (MCC)” of over 1000 µg/mL. In addition, the MIC in the data set on Visna virus was 500 µg/mL (≈ 1360 µM).
In the case of `C=CCOc1ccc(NC(=O)CCN2C[C@H](O)[C@@H](O)[C@H](O)[C@H]2CO)cc1` [Example 10, N-(4-Allyloxyphenyl)-3-(1,5-didesoxy-1,5-imino-D-glucit-N-yl)propionamide], the MCC in “Cytotoxicity (MCC)” is over 1000 µg/mL. For the same compound, the MIC in the data set on Visna virus worked out at 30 µg/mL (≈ 81.9 µM).
For `O=C(CCN1C[C@H](O)[C@@H](O)[C@H](O)[C@H]1CO)Nc1ccc(C(F)(F)F)cc1` [Example 11, N-(4-Trifluoromethylphenyl)-3-(1,5-didesoxy-1,5-imino-D-glucit-N-yl)propionamide] the same measures were over 1000 µg/mL and 500 µg/mL (≈ 1320 µM).
For `O=C(CCN1C[C@H](O)[C@@H](O)[C@H](O)[C@H]1CO)Nc1ccc(OC(F)(F)C(F)Cl)cc1` (stereo partly drawn) [Example 12, N-[4-(2-Chloro-1,1,2-trifluoroethoxy)phenyl]-3-(1,5-didesoxy-1,5-imino-D-glucit-N-yl)propionamide], in that order: 1000 µg/mL and 250 µg/mL (≈ 565 µM).
For `CC(C)c1ccccc1NC(=O)CCN1C[C@H](O)[C@@H](O)[C@H](O)[C@H]1CO` [Example 14, N-(2-Isopropylphenyl)-3-(1,5-didesoxy-1,5-imino-D-glucit-N-yl)propionamide] the same measures were over 1000 µg/mL and 125 µg/mL (≈ 355 µM).
`O=C(CCN1C[C@H](O)[C@@H](O)[C@H](O)[C@H]1CO)Nc1ccccc1F` [Example 16, N-(2-Fluorophenyl)-3-(1,5-didesoxy-1,5-imino-D-glucit-N-yl)propionamide] gave an MCC in “Cytotoxicity (MCC)” of over 1000 µg/mL. Also, the MIC in the data set with Visna virus was found to be 250 µg/mL (≈ 761 µM).
Take `O=C(CCN1C[C@H](O)[C@@H](O)[C@H](O)[C@H]1CO)N1CCc2ccccc21` [Example 17, 1-[3-(1,5-Didesoxy-1,5-imino-D-glucit-N-yl)propionyl]-2,3-dihydroindole]: the MCC in the data set “Cytotoxicity (MCC)” is 1000 µg/mL. In addition, the MIC in the data set with Visna virus was 125 µg/mL (≈ 372 µM).
Consider `O=C(CCN1C[C@H](O)[C@@H](O)[C@H](O)[C@H]1CO)Nc1ccc(F)cc1F` [Example 18, N-(2,4-Difluorophenyl)-3-(1,5-didesoxy-1,5-imino-D-glucit-N-yl)propionamide], for which, in “Cytotoxicity (MCC)”, the MCC is over 1000 µg/mL. For the same compound, the MIC with Visna virus was 500 µg/mL (≈ 1440 µM).
For `O=C(CCN1C[C@H](O)[C@@H](O)[C@H](O)[C@H]1CO)Nc1ccc(F)c(F)c1` [Example 19, N-(3,4-Difluorophenyl)-3-(1,5-didesoxy-1,5-imino-D-glucit-N-yl)propionamide] the same measures were over 1000 µg/mL and 125 µg/mL (≈ 361 µM).
For `COc1cc(NC(=O)CCN2C[C@H](O)[C@@H](O)[C@H](O)[C@H]2CO)cc(OC)c1OC` [Example 23, N-(3,4,5-Trimethoxyphenyl)-3-(1,5-didesoxy-1,5-imino-D-glucit-N-yl)propionamide], the MCC in “Cytotoxicity (MCC)” was found to be 150 µg/mL. Also, the MIC in the data set with Visna virus stood at 75 µg/mL (≈ 187 µM).
For `COc1ccc(NC(=O)CCN2C[C@H](O)[C@@H](O)[C@H](O)[C@H]2CO)cc1OC` [Example 24, N-(3,4-Dimethoxyphenyl)-3-(1,5-didesoxy-1,5-imino-D-glucit-N-yl)propionamide], in that order: over 1000 µg/mL and 125 µg/mL (≈ 337 µM).
As for `COc1cc(NC(=O)CCN2C[C@H](O)[C@@H](O)[C@H](O)[C@H]2CO)cc(OC)c1` [Example 25, N-(3,5-Dimethoxyphenyl)-3-(1,5-didesoxy-1,5-imino-D-glucit-N-yl)propionamide], the MCC in the data set “Cytotoxicity (MCC)” is over 1000 µg/mL. The MIC with Visna virus was determined as 250 µg/mL (≈ 675 µM).
For `N#Cc1cccc(NC(=O)CCN2C[C@H](O)[C@@H](O)[C@H](O)[C@H]2CO)c1` [Example 27, N-(3-Cyanophenyl)-3-(1,5-didesoxy-1,5-imino-D-glucit-N-yl)propionamide] the same measures were over 1000 µg/mL and 250 µg/mL (≈ 745 µM).
The compound `O=C(CCN1C[C@H](O)[C@@H](O)[C@H](O)[C@H]1CO)Nc1ccc(C2CCCCC2)cc1` [Example 28, N-(4-Cyclohexylphenyl)-3-(1,5-didesoxy-1,5-imino-D-glucit-N-yl)propionamide] yielded an MCC in the data set “Cytotoxicity (MCC)” of over 1000 µg/mL. Besides, the MIC in the data set on Visna virus was found to be 500 µg/mL (≈ 1270 µM).
Turning to `O=C(CCN1C[C@H](O)[C@@H](O)[C@H](O)[C@H]1CO)Nc1ccc2c(c1)OCCO2` [Example 29, N-(3,4-Ethylenedioxyphenyl)-3-(1,5-didesoxy-1,5-imino-D-glucit-N-yl)propionamide], the MCC in “Cytotoxicity (MCC)” is over 1000 µg/mL. Besides, the MIC in the data set on Visna virus is 125 µg/mL (≈ 339 µM).
Consider `O=C(CCN1C[C@H](O)[C@@H](O)[C@H](O)[C@H]1CO)Nc1ccc2c(c1)OCO2` [Example 31, N-(3,4-Methylenedioxyphenyl)-3-(1,5-didesoxy-1,5-imino-D-glucit-N-yl)propionamide], for which, in “Cytotoxicity (MCC)”, the MCC was over 1000 µg/mL. Besides, the MIC in the data set with Visna virus is 125 µg/mL (≈ 353 µM).
For `CSc1ccccc1NC(=O)CCN1C[C@H](O)[C@@H](O)[C@H](O)[C@H]1CO` [Example 32, N-(2-Methylthiophenyl)-3-(1,5-didesoxy-1,5-imino-D-glucit-N-yl)propionamide], in that order: over 1000 µg/mL and 250 µg/mL (≈ 701 µM).
In the case of `O=C(CCN1C[C@H](O)[C@@H](O)[C@H](O)[C@H]1CO)Nc1ccccc1` [Example 34, N-Phenyl-3-(1,5-didesoxy-1,5-imino-D-glucit-N-yl)propionamide], in “Cytotoxicity (MCC)”, the MCC is over 1000 µg/mL. Moreover, the MIC in the data set with Visna virus is 15 µg/mL (≈ 48.3 µM).
Consider `CCOc1ccc(NC(=O)CCN2C[C@H](O)[C@@H](O)[C@H](O)[C@H]2CO)cc1` [Example 35, N-(4-Ethoxyphenyl)-3-(1,5-didesoxy-1,5-imino-D-glucit-N-yl)propionamide], for which the MCC in “Cytotoxicity (MCC)” came to 250 µg/mL. Moreover, the MIC in the data set with Visna virus was 15 µg/mL (≈ 42.3 µM).
In turn, `O=C(CCN1C[C@H](O)[C@@H](O)[C@H](O)[C@H]1CO)NCc1ccccn1` [Example 38, N-(2-Pyridylmethyl)-3-(1,5-didesoxy-1,5-imino-D-glucit-N-yl)propionamide] showed an MCC in “Cytotoxicity (MCC)” of 1000 µg/mL. Also, in the data set on Visna virus, the MIC came to 250 µg/mL (≈ 768 µM).
For the compound `O=C(CCN1C[C@H](O)[C@@H](O)[C@H](O)[C@H]1CO)Nc1ccc(OCCO)cc1` [Example 40, N-[4-(2-Hydroxyethoxy)phenyl]-3-(1,5-didesoxy-1,5-imino-D-glucit-N-yl)propionamide], the MCC in “Cytotoxicity (MCC)” is over 1000 µg/mL. The MIC in the data set with Visna virus was 15 µg/mL (≈ 40.5 µM).
As for `O=C(CCN1C[C@H](O)[C@@H](O)[C@H](O)[C@H]1CO)N1CCN(c2ccc(F)cc2)CC1` [Example 41, 3-(1,5-Didesoxy-1,5-imino-D-glucit-N-yl)propionyl-1-(4-p-fluorophenyl)piperazine], the MCC in “Cytotoxicity (MCC)” was 1000 µg/mL. Moreover, the MIC in the data set on Visna virus was determined as 125 µg/mL (≈ 315 µM).
`COC(=O)c1ccc(NC(=O)CCN2C[C@@H](O)[C@@H](O)[C@H](O)[C@H]2CO)cc1` [Example 43, N-(4-Methoxycarbonylphenyl)-3-(1,5-didesoxy-1,5-imino-D-mannit-N-yl)propionamide] returned an MCC in “Cytotoxicity (MCC)” of over 1000 µg/mL. The MIC in the data set on Visna virus was found to be 500 µg/mL (≈ 1360 µM).
As to `CCN(CC)CCOc1ccc(NC(=O)CCN2C[C@@H](O)[C@@H](O)[C@H](O)[C@H]2CO)cc1` [Example 50, N-[4-(2-N,N-Diethylaminoethoxy)phenyl]-3-(1,5-didesoxy-1,5-imino-D-mannit-N-yl)propionamide], the MCC in “Cytotoxicity (MCC)” was 1000 µg/mL. In the data set with Visna virus, the MIC is 250 µg/mL (≈ 588 µM).
For `C=CCOc1ccc(NC(=O)CCN2C[C@@H](O)[C@@H](O)[C@H](O)[C@H]2CO)cc1` [Example 51, N-(4-Allyloxyphenyl)-3-(1,5-didesoxy-1,5-imino-D-mannit-N-yl)propionamide], in that order: 1000 µg/mL and 250 µg/mL (≈ 682 µM).
For `O=C(CCN1C[C@@H](O)[C@@H](O)[C@H](O)[C@H]1CO)Nc1ccc(OC(F)(F)C(F)Cl)cc1` (stereo partly drawn) [Example 53, N-[4-(2-Chloro-1,1,2-trifluoroethoxy)phenyl]-3-(1,5-didesoxy-1,5-imino-D-mannit-N-yl)propionamide] the same measures were 500 µg/mL and 250 µg/mL (≈ 565 µM).
In turn, `CC(C)c1ccc(NC(=O)CCN2C[C@@H](O)[C@@H](O)[C@H](O)[C@H]2CO)cc1` [Example 54, N-(4-Isopropylphenyl)-3-(1,5-didesoxy-1,5-imino-D-mannit-N-yl)propionamide] yielded an MCC in “Cytotoxicity (MCC)” of 1000 µg/mL. In addition, in the data set on Visna virus, the MIC was 250 µg/mL (≈ 709 µM).
For `CC(C)c1ccccc1NC(=O)CCN1C[C@@H](O)[C@@H](O)[C@H](O)[C@H]1CO` [Example 55, N-(2-Isopropylphenyl)-3-(1,5-didesoxy-1,5-imino-D-mannit-N-yl)propionamide] the same measures were 1000 µg/mL and 250 µg/mL (≈ 709 µM).
The compound `O=C(CCN1C[C@@H](O)[C@@H](O)[C@H](O)[C@H]1CO)Nc1ccc(F)c(F)c1` [Example 60, N-(3,4-Difluorophenyl)-3-(1,5-didesoxy-1,5-imino-D-mannit-n-yl)propionamide] yielded an MCC in “Cytotoxicity (MCC)” of over 1000 µg/mL. In the data set with Visna virus, the MIC was determined as 500 µg/mL (≈ 1440 µM).
For `COc1cc(NC(=O)CCN2C[C@@H](O)[C@@H](O)[C@H](O)[C@H]2CO)cc(OC)c1` [Example 66, N-(3,5-Dimethoxyphenyl)-3-(1,5-didesoxy-1,5-imino-D-mannit-N-yl)propionamide] the same measures were 1000 µg/mL and 500 µg/mL (≈ 1350 µM).
